Data published in patent US6310095A, “Inhibitors of protein isoprenyl transferases” (University of Pittsburgh, priority 1998, dated 2001).
Counter-ions that a name gives are not always drawn. Like-named read-outs stand apart in the source and are kept apart here. One block for each compound: values may come before it.

Molecular target: T1, protein farnesyltransferase (Rattus norvegicus, UniProt Q02293+Q04631)
T1 construct: Rat brain protein farnesyltransferase activity is measured; from tissue; host or cells: rat brain; purified according to Reiss et al., Cell 62:81-88 (1990), steps one through three
Test: in vitro inhibition of protein farnesyltransferase (scintillation proximity assay, biotin-K Ras B fragment)
Assay type: biochemical
Details: for inhibition at 10 µM: at 1 × 10^-5 M; for inhibition at 0.01 µM / inhibition at 1 µM / inhibition at 0.1 µM: read-out: % inhibition of farnesyltransferase
Description: The ability of the compounds of the invention to inhibit protein farnesyltransferase or protein geranylgeranyltransferase can be measured according to the method of Moores, et al., J. Biol. Chem. 266: 14603 (1991) or the method of Vogt, et al., J. Biol. Chem. 270:660-664 (1995). In addition, procedures for determination of the inhibition of farnesylation of the oncogene protein Ras are described by Goldstein, et al., J. Biol. Chem., 266:15575-15578 (1991) and by Singh in U.S. Pat. No. 5,245,061.
In addition, in vitro inhibition of protein farnesyltransferase may be measured by the following procedure. Rat brain protein farnesyltransferase activity is measured using an Amersham Life Science commercial scintillation proximity assay kit and substituting a biotin-K Ras B fragment (biotin-[…]CO2 H), 0.1 mM final concentration, for the biotin-lamin substrate provided by Amersham. The enzyme is purified according to Reiss, Y., et al., Cell, 62: 81-88 (1990), utilizing steps one through three.
The % inhibition of protein farnesyltransferase was determined for representative compounds of the invention.

SMILES: CSCC[C@H](NC(=O)c1ccc(COCc2ccc3ccccc3c2)cc1-c1ccccc1C)C(=O)[O-].[Li+] [Example 583]
% inhibition of farnesyltransferase (at 1 × 10^-6 M): 98%

SMILES: CSCC[C@H](NC(=O)c1ccc(COC(Cc2ccccc2)c2cncs2)cc1-c1ccccc1C)C(=O)[O-].[Li+] (some centres unmarked) [Example 828]
% inhibition of farnesyltransferase (at 1 × 10^-8 M): 87%

SMILES: CSCC[C@H](NC(=O)c1ccc(C=Cc2cncs2)cc1-c1ccccc1C)C(=O)[O-].[Li+] [Example 785]
% inhibition of farnesyltransferase (at 1 × 10^-7 M): 96%

SMILES: CSCC[C@H](NC(=O)c1ccc(CN(CCC2CCCCC2)S(=O)(=O)c2ccccc2)cc1-c1ccccc1C)C(=O)O [Example 612, N-[4-(N-benzenenesulfonyl-N-(2-cyclohexylethyl)aminomethyl)-2-(2-methylphenyl)benzoyl]methionine Lithium Salt]
inhibition at 0.01 µM (at 1 × 10^-8 M): 96%

SMILES: CSCC[C@H](NC(=O)c1ccc(CNc2cccc(N(C)C)c2)cc1-c1ccccc1)C(=O)O [Example 683]
inhibition at 10 µM: 57%

SMILES: CSCC[C@H](NC(=O)c1ccc(/C=C/c2ccc(Oc3ccccc3[N+](=O)[O-])cc2)cc1-c1ccccc1C)C(=O)O [Example 856]
% inhibition of farnesyltransferase (at 1 × 10^-7 M): 97%

SMILES: CCS(=O)(=O)C[C@H](CC1CCCCC1)NCc1ccc(C(=O)N[C@@H](CCS(C)(=O)=O)C(=O)O)c(-c2ccccc2C)c1 [Example 621, N-[4-(3-cyclohexyl-1-ethylsulfonylpropan-2-ylaminomethyl)-2-(2-methylphenyl)benzoyl]-2-amino-4-methanesulfonylbutanoic acid Lithium Salt]
inhibition at 0.1 µM (at 1 × 10^-7 M): 98%

SMILES: CSCC[C@H](NC(=O)c1ccc(CN(C2CC2)C(C)(C)CC2CCCCC2)cc1-c1ccccc1C)C(=O)O [Example 316]
% inhibition of farnesyltransferase (at 1 × 10^-6 M): 63%

SMILES: CSCC[C@H](NC(=O)c1ccc(SCCc2ccccc2)cc1-c1ccccc1C)C(=O)O [Example 498]
% inhibition of farnesyltransferase (at 1 × 10^-6 M): 98%

SMILES: CSCC[C@H](NC(=O)c1ccc(COCc2ccsc2)cc1-c1ccccc1C)C(=O)[O-].[Li+] [Example 274]
% inhibition of farnesyltransferase (at 1 × 10^-6 M): 94%

SMILES: CSCC[C@H](NC(=O)c1ccc(CSCC2CCCCC2)cc1-c1ccccc1C)C(=O)[O-].[Li+] [Example 559]
% inhibition of farnesyltransferase (at 1 × 10^-7 M): 96%

SMILES: CSCC[C@H](NC(=O)c1ccc(CNC(CC2CCCCC2)C2CCCCC2)cc1-c1ccccc1C)C(=O)O (some centres unmarked) [Example 616, N-[4-(1,2-dicyclohexylethylaminomethyl)-2-(2-methylphenyl)benzoyl]methionine Lithium Salt]
inhibition at 0.1 µM: 95%

SMILES: COc1ccccc1CCC(=O)Nc1ccc(C(=O)N[C@@H](CCSC)C(=O)O)c(-c2ccccc2C)c1 [Example 544, N-[4-N-(3-(2-methoxyphenyl)propionoyl)amino-2-(2-methylphenyl)benzoyl]methionine lithium salt]
inhibition at 1 µM (at 1 × 10^-6 M): 35%

SMILES: CSCC[C@H](NC(=O)c1ccc(/C=C/c2cccc3ccccc23)cc1-c1ccccc1C)C(=O)O [Example 466]
% inhibition of farnesyltransferase (at 1 × 10^-6 M): 93%

SMILES: CSCC[C@H](NC(=O)c1ccc(CCc2ccc(Oc3ccc(Cl)cc3)cc2)cc1-c1ccccc1C)C(=O)O [Example 860]
% inhibition of farnesyltransferase (at 1 × 10^-8 M): 85%

SMILES: CSCC[C@H](NC(=O)c1ccc(COCc2ccc(-c3cccc([N+](=O)[O-])c3)o2)cc1-c1ccccc1C)C(=O)[O-].[Li+] [Example 440]
% inhibition of farnesyltransferase (at 1 × 10^-7 M): 92%

SMILES: CSCC[C@H](NC(=O)c1ccc(CN(Cc2ccccc2)c2ccc(C(F)(F)F)cc2)cc1-c1ccccc1C)C(=O)O [Example 853, N-[4-(N-benzyl-N-(4-trifluoromethylphenyl)aminomethvl)-2-(2-methylphenyl)benzoyl]methionine lithium salt]
inhibition at 0.01 µM (at 1 × 10^-8 M): 85%

SMILES: CSCC[C@H](NC(=O)c1ccc(COCc2cnco2)cc1-c1ccccc1C)C(=O)[O-].[Li+] [Example 891]
% inhibition of farnesyltransferase (at 1 × 10^-7 M): 94%

SMILES: CSCC[C@H](NC(=O)c1ccc(CNCC(O)c2cccc(O)c2)cc1-c1ccccc1)C(=O)O (some centres unmarked) [Example 661]
inhibition at 1 µM (at 1 × 10^-6 M): 45%

SMILES: CSCC[C@H](NC(=O)c1ccc(CSc2nc(O)cc(Cc3ccccc3)n2)cc1-c1ccccc1C)C(=O)O [Example 744]
% inhibition of farnesyltransferase (at 1 × 10^-6 M): 84%

SMILES: CSCC[C@H](NC(=O)c1ccc(COCc2cncs2)cc1-c1ccccc1C)C(=O)[O-].[Li+] [Example 539]
% inhibition of farnesyltransferase (at 1 × 10^-7 M): 89%

SMILES: C=C[C@@H](CC1CCCCC1)NCc1ccc(C(=O)N[C@@H](CCSC)C(=O)O)c(-c2ccccc2)c1 [Example 664]
inhibition at 10 µM: 75%

SMILES: COc1cc(I)c(C(=O)Nc2ccc(C(=O)N[C@@H](CCSC)C(=O)O)c(-c3ccccc3)c2)cc1OC [Example 756]
inhibition at 10 µM: 47%

SMILES: CSCC[C@H](NC(=O)c1ccc(-c2cccc(-c3ccccc3)c2)cc1-c1ccccc1C)C(=O)[O-].[Li+] [Example 787]
% inhibition of farnesyltransferase (at 1 × 10^-6 M): 70%

Second part, the compound after the results:

inhibition at 10 µM: 79%
SMILES: CSCC[C@H](NC(=O)c1ccc(CNc2cc(C(C)(C)C)[nH]n2)cc1-c1ccccc1)C(=O)O [Example 381]

inhibition at 10 µM: 66%
SMILES: CSCC[C@H](NC(=O)c1ccc(CNc2nnc(C)s2)cc1-c1ccccc1)C(=O)O [Example 371]

inhibition at 1 µM (at 1 × 10^-6 M): 90%
SMILES: CSCC[C@H](NC(=O)c1ccc(CN(Cc2ccccc2)Cc2ccco2)cc1-c1ccccc1C)C(=O)O [Example 504, N-[4-N-(furan-2-ylmethyl)-N-benzylaminomethyl-2-(2-methylphenyl)benzoyl]methionine lithium salt]

% inhibition of farnesyltransferase (at 1 × 10^-7 M): 89%
SMILES: CSCC[C@H](NC(=O)c1ccc(CSc2ccc(C)cc2C)cc1-c1ccccc1C)C(=O)O [Example 741]

inhibition at 10 µM: 71%
SMILES: CSCC[C@H](NC(=O)c1ccc(CNc2ccc(I)cc2)cc1-c1ccccc1)C(=O)O [Example 688]

inhibition at 10 µM: 44%
SMILES: CSCC[C@H](NC(=O)c1ccc(CNCC(C)(C)CN(C)C)cc1-c1ccccc1)C(=O)O [Example 639]

inhibition at 0.01 µM (at 1 × 10^-8 M): 85%
SMILES: CSCC[C@H](NC(=O)c1ccc(CN(Cc2ccccc2)c2cccc(Cl)c2)cc1-c1ccccc1C)C(=O)O [Example 847, N-[4-N-(N-benzyl-N(3-chlorophenyl)aminomethyl)-2-(2-methylphenyl)benzoyl]methionine lithium salt]

% inhibition of farnesyltransferase (at 1 × 10^-6 M): 99%
SMILES: CSCC[C@H](NC(=O)c1ccc(CNC(CC2CCCCC2)C(O)C(O)CC(C)C)cc1-c1ccccc1C)C(=O)O (some centres unmarked) [Example 529]

inhibition at 10 µM: 45%
SMILES: CSCC[C@H](NC(=O)c1ccc(CNc2cc(C(=O)O)cc(C(=O)O)c2)cc1-c1ccccc1)C(=O)O [Example 710]

% inhibition of farnesyltransferase (at 1 × 10^-6 M): 93%
SMILES: Cc1ccccc1-c1cc(CN(C2CC2)C(C)(C)CC2CCCCC2)ccc1C(=O)N[C@@H](CCS(C)(=O)=O)C(=O)O [Example 320]

% inhibition of farnesyltransferase (at 1 × 10^-7 M): 60%
SMILES: CSCC[C@H](NC(=O)c1ccc(CSc2nc3cc(C)ccc3[nH]2)cc1-c1ccccc1C)C(=O)O [Example 733]

% inhibition of farnesyltransferase (at 1 × 10^-7 M): 94%
SMILES: C=C(C)C1CC=C(COCc2ccc(C(=O)N[C@@H](CCSC)C(=O)O)c(-c3ccccc3C)c2)CC1 (some centres unmarked) [Example 521]

inhibition at 10 µM: 40%
SMILES: COc1ccc(Br)c(C(=O)Nc2ccc(C(=O)N[C@@H](CCSC)C(=O)O)c(-c3ccccc3)c2)c1 [Example 754]

inhibition at 10 µM: 74%
SMILES: CSCC[C@H](NC(=O)c1ccc(CNc2ccc(C(C)C)cc2)cc1-c1ccccc1)C(=O)O [Example 692]

inhibition at 0.01 µM (at 1 × 10^-8 M): 95%
SMILES: CSCC[C@H](NC(=O)c1ccc(CN[C@H](CSC2CCCCC2)CC2CCCCC2)cc1-c1ccccc1C)C(=O)O [Example 766, lithium salt]

% inhibition of farnesyltransferase (at 1 × 10^-7 M): 72%
SMILES: CSCC[C@H](NC(=O)c1ccc(COc2ccc3ccccc3c2)cc1-c1ccccc1C)C(=O)O [Example 573]

inhibition at 1 µM (at 1 × 10^-6 M): 32%
SMILES: CSCC[C@H](NC(=O)c1ccc(NC(=O)C[C@H]2C[C@@H](C(C)=O)C2(C)C)cc1-c1ccccc1)C(=O)O [Example 751]

inhibition at 0.1 µM (at 1 × 10^-7 M): 91%
SMILES: CSCC[C@H](NC(=O)c1ccc(CNCC(=O)N(Cc2ccccc2)Cc2ccccc2)cc1-c1ccccc1C)C(=O)O [Example 914, N-[4-(N-(N,N-dibenzylacetamido)aminomethyl)-2-(2-methylphenyl)benzoyl]methionine]

% inhibition of farnesyltransferase (at 1 × 10^-6 M): 95%
SMILES: CSCC[C@H](NC(=O)c1ccc(/C=C/c2cnccn2)cc1-c1ccccc1C)C(=O)O [Example 495]

% inhibition of farnesyltransferase (at 1 × 10^-6 M): 92%
SMILES: CSCC[C@H](NC(=O)c1ccc(C=CCc2ccccc2)cc1-c1ccccc1C)C(=O)O [Example 469]

inhibition at 10 µM: 53%
SMILES: CSCC[C@H](NC(=O)c1ccc(CNc2ccc3c(c2)Cc2ccccc2-3)cc1-c1ccccc1)C(=O)O [Example 706]

inhibition at 1 µM (at 1 × 10^-6 M): 43%
SMILES: CSCC[C@H](NC(=O)c1ccc(CNCC(O)CO)cc1-c1ccccc1)C(=O)O (some centres unmarked) [Example 632]

% inhibition of farnesyltransferase (at 1 × 10^-8 M): 86%
SMILES: CSCC[C@H](NC(=O)c1ccc(CON=C(Cc2ccccc2)Cc2ccccc2)cc1-c1ccccc1C)C(=O)O [Example 888]

% inhibition of farnesyltransferase (at 1 × 10^-6 M): 96%
SMILES: CSCC[C@H](NC(=O)c1ccc(CCCC(=O)c2ccc3ccccc3c2)cc1-c1ccccc1C)C(=O)O [Example 473]

% inhibition of farnesyltransferase (at 1 × 10^-6 M): 97%
SMILES: Cc1ccccc1-c1cc(CNC(C)(C)Cc2ccccc2)ccc1C(=O)N[C@@H](CCS(C)(=O)=O)C(=O)O [Example 311]

% inhibition of farnesyltransferase (at 1 × 10^-6 M): 92%
SMILES: CSCC[C@H](NC(=O)c1ccc(/C=C/c2ccc3ccccc3c2)cc1-c1ccccc1C)C(=O)O [Example 465]
